Data taken from US20230117470A1, “SUBSTITUTED PYRAZOLE COMPOUNDS AS TOLL RECEPTOR INHIBITORS” (BRISTOL-MYERS SQUIBB COMPANY, priority 2019, published 2023).

How the values were obtained:
Format in all cases: cell-based
human TLR7 = biological target: T1, human TLR7 (Homo sapiens, UniProt Q9NYK1); test: TLR7 inhibition reporter assay (HEK-Blue cells, SEAP reporter, gardiquimod stimulation); settings: HEK-Blue cells overexpressing human TLR7, SEAP reporter, gardiquimod 7.5 μM
T1 construct: host or cells: HEK-Blue cells
T1 sequence (Q9NYK1 27-1049): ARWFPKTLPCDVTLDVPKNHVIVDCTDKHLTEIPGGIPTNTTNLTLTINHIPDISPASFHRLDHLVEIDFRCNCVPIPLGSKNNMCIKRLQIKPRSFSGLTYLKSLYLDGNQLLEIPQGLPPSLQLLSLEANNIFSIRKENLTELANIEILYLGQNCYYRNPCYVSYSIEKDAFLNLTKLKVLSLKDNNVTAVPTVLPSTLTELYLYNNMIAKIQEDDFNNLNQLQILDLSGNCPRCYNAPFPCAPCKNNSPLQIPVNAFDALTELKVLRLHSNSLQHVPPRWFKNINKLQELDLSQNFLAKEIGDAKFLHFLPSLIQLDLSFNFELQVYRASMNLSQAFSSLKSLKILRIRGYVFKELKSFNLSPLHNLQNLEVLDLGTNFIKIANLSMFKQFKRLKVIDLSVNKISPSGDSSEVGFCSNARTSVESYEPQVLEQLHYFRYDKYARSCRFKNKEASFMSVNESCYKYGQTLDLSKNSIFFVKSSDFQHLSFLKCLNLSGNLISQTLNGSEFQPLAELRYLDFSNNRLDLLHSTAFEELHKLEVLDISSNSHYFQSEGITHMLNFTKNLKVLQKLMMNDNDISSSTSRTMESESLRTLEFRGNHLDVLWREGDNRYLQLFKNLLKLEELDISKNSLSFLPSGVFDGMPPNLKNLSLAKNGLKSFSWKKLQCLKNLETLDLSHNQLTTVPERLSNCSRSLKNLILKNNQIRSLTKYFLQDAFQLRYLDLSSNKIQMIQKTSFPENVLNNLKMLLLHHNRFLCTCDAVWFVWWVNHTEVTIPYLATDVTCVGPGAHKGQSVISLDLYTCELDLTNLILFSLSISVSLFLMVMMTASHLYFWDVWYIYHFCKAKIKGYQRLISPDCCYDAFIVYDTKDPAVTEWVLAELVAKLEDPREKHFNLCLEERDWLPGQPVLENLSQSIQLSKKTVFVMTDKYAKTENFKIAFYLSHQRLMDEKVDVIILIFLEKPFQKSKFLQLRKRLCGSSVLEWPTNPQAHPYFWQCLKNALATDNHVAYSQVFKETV
Procedure, shortened: (§1)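 Percent inhibition of agonist-induced SEAP, set between agonist+DMSO wells and known-inhibitor wells, after 22 h at 37° C. Compounds (0.05 nM-50 μM final) were added 30 min at room temperature before ligand: gardiquimod 7.5 μM for TLR7, R848 15.9 μM for TLR8, ODN2006 5 nM for TLR9. Human receptors overexpressed in HEK-Blue reporter cells.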

human TLR8 = biological target: T2, human TLR8 (Homo sapiens, UniProt Q9NR97); test: TLR8 inhibition reporter assay (HEK-Blue cells, SEAP reporter, R848 stimulation); settings: HEK-Blue cells overexpressing human TLR8, SEAP reporter, R848 15.9 μM
T2 construct: host or cells: HEK-Blue cells
T2 sequence (Q9NR97 27-1041): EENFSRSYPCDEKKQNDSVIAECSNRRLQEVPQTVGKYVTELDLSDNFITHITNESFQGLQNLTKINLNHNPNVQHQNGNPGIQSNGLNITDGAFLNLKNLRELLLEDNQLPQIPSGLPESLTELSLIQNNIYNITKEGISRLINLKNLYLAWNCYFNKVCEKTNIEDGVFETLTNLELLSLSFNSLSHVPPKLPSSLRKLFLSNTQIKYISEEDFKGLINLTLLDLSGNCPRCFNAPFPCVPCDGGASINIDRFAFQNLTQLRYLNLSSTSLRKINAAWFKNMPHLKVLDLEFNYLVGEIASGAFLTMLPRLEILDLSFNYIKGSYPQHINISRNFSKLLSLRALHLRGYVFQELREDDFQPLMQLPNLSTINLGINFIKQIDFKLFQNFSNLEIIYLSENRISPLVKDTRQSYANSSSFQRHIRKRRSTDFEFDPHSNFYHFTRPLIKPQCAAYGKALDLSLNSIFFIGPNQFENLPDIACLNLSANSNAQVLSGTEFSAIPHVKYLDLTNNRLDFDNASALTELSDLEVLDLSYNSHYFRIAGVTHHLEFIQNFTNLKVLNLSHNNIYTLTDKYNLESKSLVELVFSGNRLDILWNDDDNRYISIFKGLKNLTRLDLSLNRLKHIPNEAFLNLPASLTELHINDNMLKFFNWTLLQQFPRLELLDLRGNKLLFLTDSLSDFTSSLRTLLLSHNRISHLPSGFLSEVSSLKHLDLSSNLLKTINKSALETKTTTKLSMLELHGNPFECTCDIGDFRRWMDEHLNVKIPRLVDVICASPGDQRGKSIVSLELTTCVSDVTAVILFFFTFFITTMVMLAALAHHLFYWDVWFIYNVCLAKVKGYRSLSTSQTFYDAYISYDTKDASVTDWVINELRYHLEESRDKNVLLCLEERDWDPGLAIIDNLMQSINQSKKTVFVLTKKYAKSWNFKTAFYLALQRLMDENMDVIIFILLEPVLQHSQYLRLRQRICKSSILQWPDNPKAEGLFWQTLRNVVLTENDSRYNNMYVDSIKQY
Procedure, shortened: as §1

human TLR9 = biological target: T3, human TLR9 (Homo sapiens, UniProt Q9NR96); test: TLR9 inhibition reporter assay (HEK-Blue cells, SEAP reporter, ODN2006 stimulation); settings: HEK-Blue cells overexpressing human TLR9, SEAP reporter, ODN2006 5 nM
T3 construct: host or cells: HEK-Blue cells
T3 sequence (Q9NR96 26-1032): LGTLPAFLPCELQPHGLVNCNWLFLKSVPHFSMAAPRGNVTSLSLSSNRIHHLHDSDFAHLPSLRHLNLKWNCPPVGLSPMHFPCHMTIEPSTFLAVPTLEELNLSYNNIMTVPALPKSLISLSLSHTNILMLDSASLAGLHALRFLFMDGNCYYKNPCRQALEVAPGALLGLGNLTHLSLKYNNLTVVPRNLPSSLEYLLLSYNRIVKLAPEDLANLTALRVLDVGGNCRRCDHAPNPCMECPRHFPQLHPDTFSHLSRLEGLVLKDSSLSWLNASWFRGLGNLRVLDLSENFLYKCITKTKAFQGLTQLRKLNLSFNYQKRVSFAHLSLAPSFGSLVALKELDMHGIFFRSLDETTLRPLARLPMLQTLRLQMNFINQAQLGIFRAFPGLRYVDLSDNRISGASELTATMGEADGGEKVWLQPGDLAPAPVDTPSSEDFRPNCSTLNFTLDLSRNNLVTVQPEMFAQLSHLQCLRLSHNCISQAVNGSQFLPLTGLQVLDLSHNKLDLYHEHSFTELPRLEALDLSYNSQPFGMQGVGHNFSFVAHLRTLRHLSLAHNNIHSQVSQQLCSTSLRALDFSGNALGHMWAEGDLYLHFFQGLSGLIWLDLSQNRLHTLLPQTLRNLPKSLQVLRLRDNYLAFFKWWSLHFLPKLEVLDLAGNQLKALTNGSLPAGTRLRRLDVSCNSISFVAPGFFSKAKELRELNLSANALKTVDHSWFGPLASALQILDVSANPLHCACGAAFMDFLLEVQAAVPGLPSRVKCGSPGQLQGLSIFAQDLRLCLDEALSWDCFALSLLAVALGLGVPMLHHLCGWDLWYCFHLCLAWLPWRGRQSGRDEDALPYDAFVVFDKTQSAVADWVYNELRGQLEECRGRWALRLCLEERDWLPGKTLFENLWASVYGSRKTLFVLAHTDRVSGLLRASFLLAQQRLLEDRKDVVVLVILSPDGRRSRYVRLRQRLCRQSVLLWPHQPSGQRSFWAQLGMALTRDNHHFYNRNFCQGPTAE
Procedure, shortened: as §1

IC50 (human TLR7) [nM]	IC50 (human TLR8) [nM]	IC50 (human TLR9) [nM]	Structure (SMILES)
1.97	4.45	7630	Cc1cc(-c2[nH]nc(C(=O)NC3CCN(C(C)C)CC3)c2CC(F)(F)F)cn2ncnc12 [Example 193]
1.8	1.24	23800	Cc1cc(-c2[nH]nc(C3CCN(C(=O)CCNC(C)C)CC3)c2C(C)C)cn2ncnc12 [compound 210]
23.5	13.8	> 50000	COc1cc(-c2[nH]nc(-c3nc4c(s3)CN(C(C)C)CC4)c2C(C)C)cn2ncnc12 [Example 259]
2.97	33.7	3930	Cc1cc(-c2[nH]nc(C(=O)N[C@H]3CC[C@H](NCC4CCOCC4)CC3)c2C(C)C)cn2ncnc12 [Example 111]
3.41	15.9	> 50000	Cc1cc(-c2[nH]nc(C(=O)NC3CCC(O)CC3)c2C(C)C)cn2ncnc12 (stereo not drawn) [Example 32]
39	12.7	> 50000	Cc1cc(-c2[nH]nc(-c3ccc(C4CCNCC4)nn3)c2C(C)C)cn2ncnc12 [Example 344]
241	404	> 50000	COc1cc(-c2[nH]nc(-c3ccc(C4CCN(CCS(C)(=O)=O)CC4)cn3)c2C(C)C)cn2ncnc12 [Example 392]
9.6	5.12	> 50000	Cc1cc(-c2[nH]nc(C3CCC(NCCN(C)C)CC3)c2C(C)C)cn2ncnc12 (single isomer, unassigned) [Example 284]
7.8	6.59	5470	Cc1cc(-c2[nH]nc(C(=O)NC3CCC(N(C)C)CC3)c2C(C)C)cn2ncnc12 (stereo not drawn) [Example 7]
4.19	7.87	> 50000	Cc1cc(-c2[nH]nc(-c3cccc(N)c3)c2C(C)C)cn2ncnc12 [Example 232]
0.62	0.63	7390	Cc1cc(-c2[nH]nc(C3CCN(CC(=O)N(C)C)CC3)c2C(C)C)cn2ncnc12 [compound 212]
13.7	31.6	20900	CCC(C)N1CCC(NC(=O)c2n[nH]c(-c3cc(C)c4ncnn4c3)c2C(C)C)CC1 (stereo not drawn) [Example 152]
> 3130	> 3130	25100	Cc1cc(-c2[nH]nc(-c3ccc(C4CCN(C5COC5)CC4)nc3)c2C(C)C)cn2ncnc12 [Example 362]
1.98	2.81	5600	Cc1ncc(CN[C@H]2CC[C@H](NC(=O)c3n[nH]c(-c4cc(C)c5ncnn5c4)c3C(C)C)CC2)cn1 [Example 104]
4.94	0.28	9710	CNC1CCC(c2n[nH]c(-c3cc(C)c4ncnn4c3)c2C(C)C)CC1 (single isomer, unassigned) [Example 295]
1.59	0.21	5920	Cc1cc(-c2[nH]nc(CNC3CCN(C(C)C)CC3)c2C(C)C)cn2ncnc12 [Example 186]
8.99	14	3460	Cc1cc(-c2[nH]nc(-c3nc4c(s3)CN(C(=O)CN(C)C)CC4)c2C(C)C)cn2ncnc12 [Example 270]
56.9	18.2	> 50000	COc1cc(-c2[nH]nc(-c3cnc(C4CCN(CC5CCC5)CC4)cn3)c2C(C)C)cn2ncnc12 [Example 377]
8.11	0.12	21700	COc1cc(-c2[nH]nc(-c3ccc(C4CCN(C(C)C)CC4)cn3)c2C(C)C)cn2ncnc12 [Example 350]
1.37	0.39	10300	Cc1cc(-c2[nH]nc(-c3ccc4cnccc4c3)c2C(C)C)cn2ncnc12 [Example 214]
72.1	29.4	> 50000	Cc1cc(-c2[nH]nc(-c3ncc(C4CCN(CC(C)(C)C)CC4)cn3)c2C(C)C)cn2ncnc12 [Example 371]
11.5	5.07	6520	COc1cc(-c2[nH]nc(-c3cnc(C4CCN(C5CCOCC5)CC4)cn3)c2C(C)C)cn2ncnc12 [Example 380]
0.32	0.14	4170	Cc1cc(-c2[nH]nc(C3CCN(C(=O)CN(C)C)CC3)c2C(C)C)cn2ncnc12 [compound 209]
4.19	16.7	> 50000	Cc1cc(-c2[nH]nc(C(=O)N[C@H]3CC[C@H](NC(C)CC(C)(C)C)CC3)c2C(C)C)cn2ncnc12 (stereo partly drawn) [Example 120]
1.38	43.2	2180	Cc1cc(-c2[nH]nc(C(=O)N[C@H]3CC[C@H](NCC4CCOC4)CC3)c2C(C)C)cn2ncnc12 (stereo partly drawn) [Example 105]
